{
  "source": "patent US3932633A",
  "about": "“Novel o-triazenobenzamides, in treating aggressive behavior” (Uniroyal Inc., priority 1974, dated 1976)",
  "key": {"[1]": {"tested_on": "d-amphetamine aggregation-induced lethality", "assay": "d-Amphetamine aggregation", "format": "in vivo", "conditions": "inactive at: Example 6 200 mg/kg, chlordiazepoxide 50 mg/kg", "experimental": "Protection from d-amphetamine aggregation-induced lethality is usually afforded by alpha-adrenergic-blocking agents such as chlorpromazine, phenoxybenzamine, etc. Percent protection was determined and an ED50 value was calculated."}, "[2]": {"tested_on": "hissing response elicited by hypothalamic stimulation in cats", "assay": "Evoked hypothalamic rage response - cats", "format": "in vivo, cat", "conditions": "25 mg/kg orally for three days", "from_the_text": "The effect of the compound of Example 6 on the hissing response elicited by hypothalamic stimulation in cats was studied in an effort to determine if it had properties similar to that of chlordiazepoxide and other anti-anxiety-like agents. […] Cats with chronically implanted electrodes, stereotaxically placed in the perifornical region of the hypothalamus, were used in this study. Stimulation was accomplished in the unanesthetized, freely moving animal, and the threshold for the hissing response was determined with the following stimulus parameters: square wave stimulation of 150 Hz with a duration of 0.5 msec and voltage ranging from 5.4 to 30. The compound of Example 6 was administered orally in capsule form. Following administration, the stimulation threshold for the hiss response was determined at 1, 2, 4, 6 and 24 hours. If an effect was observed, the stimulation was carried out daily until the thresholds returned to control values. The compound of Example 6 was administered orally at a dose of 25 mg/kg for three days. […] It can be concluded that the compound of Example 6 has no effect on hypothalamic excitability in cats and in this respect differs markedly from chlordiazepoxide."}, "[3]": {"tested_on": "electroshock-induced fighting in mice", "assay": "Electroshock-induced fighting in mice", "format": "in vivo, mouse", "conditions": "i.p. administration", "from_the_text": "(§1) The compound of Example 6 was compared with chlorpromazine and chlordiazepoxide for its anti-aggressive activity. Three models of experimentally-induced aggression in rodents were studied (R. D. Sofia, Life Science, 8: 705, 1969)."}, "[4]": {"tested_on": "isolation-induced fighting in mice", "assay": "Isolated fighting mouse (IFM) test / isolated mouse aggression", "format": "in vivo", "experimental": "*IFM - Isolated fighting mouse test at a dose of 30 mg/kg\nintraperitoneally; those compounds which protected at least 40% of the\n(§2) Two models of aggression are used in the primary screening for neuroleptics, (1) isolation-induced fighting in mice (IFM), and (2) aggression induced in rats by destruction of the septal area (septal rat). Compounds are first submitted, however, to the neuropharmacological profile, a standard procedure (see, e.g., Samuel Irwin, Science, 136, 123 [1962]) employed in screening a compound to determine its usefulness as a central nervous system active compound. Those agents which cause depression over a wide dose range are then submitted to the first anti-aggression screen, the isolation-induced fighting mouse assay.\nas §1"}, "[5]": {"tested_on": "aggression induced in rats by destruction of the septal area", "assay": "Septal rat aggression", "format": "in vivo", "from_the_text": "as §2, §1"}, "[6]": {"tested_on": "tetrabenazine-induced ptosis in mice", "assay": "Antagonism of tetrabenazine-induced ptosis", "format": "in vivo, mouse", "conditions": "200 mg/kg, 30 minutes before tetrabenazine 32 mg/kg intraperitoneally", "experimental": "Groups of mice were given 32 mg/kg of tetrabenazine intraperitoneally 30 minutes after an injection of the compound of Example 6 (200 mg/kg). The degree of ptosis (eyelid drooping or closure) was then determined exactly 30 minutes after tetrabenazine administration."}, "5 day lethality, mice": {"assay": "5 day lethality, mice", "conditions": "mouse, in vivo", "from_the_text": "(§3) Table VIII gives the results of 5 day lethality studies following single injections of drug. All values presented represent tests conducted when animals were housed 10 per cage. The compound of Example 6 was compared with chlorpromazine and chlordiazepoxide. In these and all the preceding calculations, the method of Litchfield and Wilcoxon (J. Pharmacol. Exptl. Ther., 96: 99, 1949) was used to estimate effective (ED50) or lethal (LD50) dose."}, "[7]": {"tested_on": "spontaneous locomotor activity in rats", "assay": "Spontaneous locomotor activity", "format": "in vivo", "conditions": "Rattus norvegicus, ip, 0.5 h; I.P., rats, 30 minutes after administration, 30 minute activity count; read-out: SD50 (dose causing 50% reduction from control activity)"}, "[8]": {"tested_on": "pentylenetetrazol seizures in mice", "assay": "Pentylenetetrazol seizures", "format": "in vivo, mouse", "conditions": "I.P., mice; inactive at: Example 6 200 mg/kg, chlorpromazine 100 mg/kg", "experimental": "In this test (modification of the method introduced by Everett and Richard, J. Pharmacol. Exptl. Ther., 81: 402, 1944), groups of ten mice each are pretreated i.p. with vehicle and various doses of the compound of Example 6 and placed in Plexiglas squares. Thirty minutes later, all mice are injected subcutaneously (s.c.) with pentylenetetrazol at 125 mg/kg and observed immediately thereafter for convulsions and death for a period of 1 hour."}, "[9]": {"assay": "Neurotoxicity (rotating rod / rotorod), mice", "conditions": "mouse, in vivo, ip; I.P., mice; 95% confidence limits; read-out: NTD50", "experimental": "(§4) In the neurotoxicity test, the value (NTD50) is defined as the dose necessary to cause 50% of mice or rats trained to walk a rotating wooden rod (5 rpm) to fall at the time of peak effect, and is a measure of drug effects on motor function or central nervous system toxicity. The results set forth in Table III were obtained when the compound of Example 6 was tested against chlorpromazine and chlordiazepoxide."}, "mice": {"tested_on": "mice", "assay": "Neuropharmacological profile", "format": "in vivo, mouse", "from_the_text": "as §2\nThe compound of Example 6 was studied in the neuropharmacological profile, which, as indicated above, is a standardized multi-dimensional observation technique used on mice to grade symptomatology and acute toxicity relative to dosage."}, "[10]": {"tested_on": "dihydroxyphenylalanine-induced fighting behavior in mice", "assay": "Dihydroxyphenylalanine (DOPA) fighting test", "format": "in vivo, mouse", "experimental": "It is well known that when monoamine oxidase inhibitors are administered prior to the administration of d1-DOPA, which is a noradrenaline precursor, convulsions or excitation occur. In this study, the MAO inhibitor pargyline (80 mg/kg) was given 1, 2 and 4 hours prior to administering 200 mg/kg of d1-DOPA. […] Thus, in this procedure, none of the agents tested appears to be a MAO inhibitor."}, "[11]": {"tested_on": "maximal electroshock seizures in mice", "assay": "Maximal electroshock seizures", "format": "in vivo, mouse", "conditions": "I.P., mice; inactive at: Example 6 200 mg/kg, chlorpromazine 25 mg/kg", "experimental": "Groups of ten mice each were injected i.p. with a vehicle and the compound of Example 6 and placed in individual Plexiglas squares. Thirty minutes after i.p. injection, each mouse was administered an electric shock transcorneally at 50mA intensity, 0.2 seconds duration (Swinyard, et al, J. Pharmacol. Exptl. Ther., 106: 319, 1952). The criterion for activity is protection against tonic extension of the hind limbs. The dose necessary to protect 50% of the mice (MES50) was determined."}, "[12]": {"assay": "Neurotoxicity (rotating rod / rotorod), rats", "conditions": "rat, in vivo, ip", "experimental": "as §4"}, "5 day lethality, rats": {"assay": "5 day lethality, rats", "conditions": "rat, in vivo, ip", "from_the_text": "as §3"}},
  "data": [
    {"smiles": "Cc1nc(NN=Nc2ccccc2C(N)=O)sc1C(=O)NCc1ccccc1", "note": "[Example 6, 2-[3-(4-methyl-5-(N-benzyl-carbamoyl)-2-thiazolyl)-2(or 1)-triazeno]-benzamide]", "values": [
      {"measurement": "ED50, d-amphetamine aggregation", "setting": "[1]", "value": "Inactive"},
      {"measurement": "decrease of the threshold for the rage response", "setting": "[2]", "value": "not observed during the experiments"},
      {"measurement": "delay from stimulus to response", "setting": "[2]", "value": "not changed"},
      {"measurement": "rage response, intensity or character", "setting": "[2]", "value": "not changed in intensity or character"},
      {"measurement": "effect on hypothalamic stimulation (threshold)", "setting": "[2]; 25 mg/kg", "value": "no effect on hypothalamic stimulation"},
      {"measurement": "ED50", "setting": "[3]; Mus musculus, ip, read-out: ED50 (95% Confidence Limits), Electroshock-Induced Fighting in Mice", "value": 96, "unit": "mg/kg"},
      {"measurement": "NTD50/ED50, Electroshock-Induced Fighting in Mice", "setting": "[3]", "value": 13.3},
      {"measurement": "responders at 30 mg/kg", "setting": "[4]; Mus musculus, ip, 30 mg/kg intraperitoneally, at least 40% protected = active", "value": 100, "unit": "%"},
      {"measurement": "ED50", "setting": "[4]; Mus musculus, ip, i.p. administration, read-out: ED50 (95% Confidence Limits), Isolated Mouse Aggression", "value": 1.8, "unit": "mg/kg"},
      {"measurement": "NTD50/ED50, Isolated Mouse Aggression", "setting": "[4]; i.p. administration", "value": 710},
      {"measurement": "ED50", "setting": "[5]; Rattus norvegicus, ip, i.p. administration, read-out: ED50 (95% Confidence Limits), Septal Rat Aggression", "value": "~4.5", "unit": "mg/kg"},
      {"measurement": "NTD50/ED50, Septal Rat Aggression", "setting": "[5]; i.p. administration", "value": 111.0},
      {"measurement": "selectivity in inhibition of septal rat aggression versus chlordiazepoxide", "setting": "[5]; septal rat", "value": 185, "unit": "times"},
      {"measurement": "reversal of tetrabenazine-induced ptosis", "setting": "[6]", "value": "did not reverse tetrabenazine-induced ptosis"},
      {"measurement": "LD50 at 120 h", "setting": "5 day lethality, mice; ip", "value": "> 1280", "unit": "mg/kg"},
      {"measurement": "LD50 at 120 h", "setting": "5 day lethality, mice; po", "value": "> 800", "unit": "mg/kg"},
      {"measurement": "ED50", "setting": "[7]", "value": "~500", "unit": "mg/kg"},
      {"measurement": "MET50", "setting": "[8]", "value": "Inactive"},
      {"measurement": "TD50", "setting": "[9]", "value": "> 1280", "unit": "mg/kg"},
      {"measurement": "deaths in neuropharmacological profile", "setting": "mice; 30, 100, 300 mg/kg, mice", "value": "No deaths occurred"},
      {"measurement": "central nervous system depressant action, profile result", "setting": "mice; mouse, in vivo", "value": "very weak central nervous system depressant"},
      {"measurement": "excitation, salivation, jumping, and fighting with d1-DOPA", "setting": "[10]; 200 mg/kg d1-DOPA, pargyline 80 mg/kg, Example 6 100 mg/kg, chlorpromazine 5 mg/kg, chlordiazepoxide 15 mg/kg", "value": "these symptoms were not observed"},
      {"measurement": "potentiation of dihydroxyphenylalanine-induced fighting behavior in mice", "setting": "[10]; mice", "value": "failed to (1) potentiate dihydroxyphenylalanine-induced fighting behavior in mice"},
      {"measurement": "MES50", "setting": "[11]", "value": "Inactive"},
      {"measurement": "TD50", "setting": "[12]", "value": "~500", "unit": "mg/kg"},
      {"measurement": "LD50 at 120 h", "setting": "5 day lethality, rats", "value": "> 1400", "unit": "mg/kg"}
    ]}
  ]
}
